Test results published in patent US20030161787A1, “Method for the identification of agents and genes influencing cardiovascular function” (priority 2000, published 2003).

Experiments:
[1] = test system: zebrafish larvae; assay: Zebrafish larvae bathed in drug-containing medium; heart beat rate, contractility and blood flow monitored by microscope; assay type: in vivo; details: for effect on heart beat rate, contractility and blood flow (cardiac performance) of untreated fish: applied alone to the surrounding medium, 4 d old larvae (FIG. 4); for effect on heart beat rate, contractility and blood flow: drug added to bathing medium, 2 d old larvae, 100 μM (FIG. 1) or increasing concentrations (FIG. 2)
Protocol: About 50 zebrafish larvae were incubated for 2-7 d at 22-28° C. in petri dishes filled with 30 ml embryo medium.
(§1) At the day of the experiment 10 larvae were transferred to small petri dishes filled with 10 ml embryo medium, 0.5 ml MESAB solution and 10 μl of the respective drug (or +10 μl of a second drug) added from a 1000-fold stock solution prepared with DMSO, these three components were previously mixed in 50 ml plastic tubes (controls only receive 10 μl DMSO).
(§2) At certain time points the contractility of the heart and blood flow was monitored, and the heart rate was determined by counting the heart beat with the aid of a stereo-microscope.

[2] = test system: nifedipine-treated zebrafish; assay: Reversal of nifedipine-induced effects on the heart of zebrafish larvae by a second drug; assay type: in vivo
Protocol: Similarely, putative anti-arrhythmic agents can be identified by studying heart beats of teleost larvae which were bathed prior to or simultaneous with the addition of the agents in a solution of an arrhythmia-inducing drug.
as §1, §2

[3] = test system: three-day old zebrafish larvae; assay: Induction of arrhythmic heart beat in three-day old zebrafish larvae by arrhythmia-inducing drugs; details: low doses in medium; anaesthetized larvae, dissecting microscope
[4] = molecular target: HERG (human ether-a-gogo-related gene) (Homo sapiens, UniProt Q12809); details: cited from earlier work
Sequence of HERG (human ether-a-gogo-related gene) (Q12809 whole entry): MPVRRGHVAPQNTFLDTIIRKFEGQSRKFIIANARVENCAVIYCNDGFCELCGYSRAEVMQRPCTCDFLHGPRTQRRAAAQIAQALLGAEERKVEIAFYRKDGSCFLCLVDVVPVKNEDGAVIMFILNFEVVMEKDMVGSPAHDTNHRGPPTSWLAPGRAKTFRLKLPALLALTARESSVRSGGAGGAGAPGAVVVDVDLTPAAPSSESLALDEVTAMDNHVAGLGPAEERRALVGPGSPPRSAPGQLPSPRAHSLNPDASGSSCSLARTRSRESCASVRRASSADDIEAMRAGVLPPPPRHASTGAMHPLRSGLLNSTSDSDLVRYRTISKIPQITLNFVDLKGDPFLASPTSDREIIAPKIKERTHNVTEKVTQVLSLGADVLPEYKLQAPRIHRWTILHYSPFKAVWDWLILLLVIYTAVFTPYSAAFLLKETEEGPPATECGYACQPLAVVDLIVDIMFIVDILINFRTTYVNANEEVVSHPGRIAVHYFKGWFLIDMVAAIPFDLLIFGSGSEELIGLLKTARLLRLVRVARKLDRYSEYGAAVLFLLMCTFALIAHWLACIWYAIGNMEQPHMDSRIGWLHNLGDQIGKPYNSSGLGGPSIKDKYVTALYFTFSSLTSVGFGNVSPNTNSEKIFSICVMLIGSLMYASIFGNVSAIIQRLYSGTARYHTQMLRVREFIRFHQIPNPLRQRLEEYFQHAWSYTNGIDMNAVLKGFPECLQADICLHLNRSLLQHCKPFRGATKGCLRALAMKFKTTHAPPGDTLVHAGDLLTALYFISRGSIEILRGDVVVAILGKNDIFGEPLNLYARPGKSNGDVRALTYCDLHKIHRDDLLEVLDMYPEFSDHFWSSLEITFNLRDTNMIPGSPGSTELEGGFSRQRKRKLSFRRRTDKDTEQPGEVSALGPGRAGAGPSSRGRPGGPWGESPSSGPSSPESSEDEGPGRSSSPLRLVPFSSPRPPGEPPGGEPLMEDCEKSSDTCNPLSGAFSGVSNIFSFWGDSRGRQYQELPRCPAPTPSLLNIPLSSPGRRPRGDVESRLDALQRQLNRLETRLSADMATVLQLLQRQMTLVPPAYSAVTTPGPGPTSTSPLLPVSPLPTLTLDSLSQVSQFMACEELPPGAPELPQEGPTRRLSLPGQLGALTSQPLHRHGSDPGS

## COC(=O)C1=C(C)NC(C)=C([N+](=O)[O-])C1c1ccccc1C(F)(F)F (racemic) [Bay K 8644, 1,4-dihydro-2,6-dimethyl-5-nitro-4-[2′-(trifluoromethyl)phenyl]-3-pyridinecarboxylic acid methyl ester]
[1]
  effect on heart beat rate, contractility and blood flow (cardiac performance) of untreated fish: nearly negligible effects
[1]; listed as (+/−)Bay K 8644
  effect on heart beat rate, contractility and blood flow (cardiac performance) of untreated fish: nearly no effect
[2]; arrest induced by 50 μM nifedipine for 1 h, added to bathing solution, 3 d old larvae (FIG. 5)
  re-animation of larvae with arrest of the heart beat: re-animated within minutes
[2]; nifedipine-treated larvae (FIG. 3)
  contractility of nifedipine-treated zebrafish: strong increase in contractility
[2]; simultaneous addition with nifedipine, 4 d old larvae (FIG. 3)
  blocking of the effects of nifedipine: completely blockable

## COc1ccc(CCN2CCC(Nc3nc4ccccc4n3Cc3ccc(F)cc3)CC2)cc1 [astemizole]
[3]
  larvae with induced arrhythmic heart beat: ~100 % of larvae

## COc1cc(N)c(Cl)cc1C(=O)NC1CCN(CCCOc2ccc(F)cc2)CC1OC (stereo not shown) [cisapride]
[4]
  block of HERG: high affinity block
[3]
  larvae with induced arrhythmic heart beat: ~100 % of larvae

## O=C(CCCN1CC=C(n2c(=O)[nH]c3ccccc32)CC1)c1ccc(F)cc1 [droperidol]
[3]
  larvae with induced arrhythmic heart beat: ~100 % of larvae

## O=C(CCCN1CCC(O)(c2ccc(Cl)cc2)CC1)c1ccc(F)cc1 [haloperidol]
[4]
  block of HERG: high affinity block
[3]
  larvae with induced arrhythmic heart beat: ~100 % of larvae

## O=c1[nH]c2ccccc2n1C1CCN(CCCC(c2ccc(F)cc2)c2ccc(F)cc2)CC1 [pimozide]
[3]
  larvae with induced arrhythmic heart beat: ~100 % of larvae

## CC(C)NCC(O)COc1cccc2ccccc12 (stereo not shown) [propanolol]
[1]
  effect on heart beat rate, contractility and blood flow: decrease in heart beat rate, contractility and blood flow

## CC(C)(C)c1ccc(C(O)CCCN2CCC(C(O)(c3ccccc3)c3ccccc3)CC2)cc1 (stereo not shown) [terfenadine]
[3]
  larvae with induced arrhythmic heart beat: ~100 % of larvae

## CSc1ccc2c(c1)N(CCC1CCCCN1C)c1ccccc1S2 (stereo not shown) [thioridazine]
[3]
  larvae with induced arrhythmic heart beat: ~100 % of larvae

## COc1ccc(CCN(C)CCCC(C#N)(c2ccc(OC)c(OC)c2)C(C)C)cc1OC (stereo not shown) [verapamil]
[1]
  effect on heart beat rate, contractility and blood flow: decrease in heart beat rate, contractility and blood flow
